Reference: patent publication US6930207B2, “Trifluoroacetylalkyl-substituted phenyl, phenol and benzoyl compounds and related methods of treatment” (Solvay Pharmaceutical GmbH, priority 2001, dated 2005)
Like-named read-outs stand apart in the source and are kept apart here.

Assays:
[1] = molecular target: T1, porcine pancreatic lipase (Sus scrofa, UniProt P00591); test: in vitro pancreatic lipase activity test (lipolytic release of p-nitrophenol from p-nitrophenyl palmitate, extinction at 405 nm); assay type: biochemical; settings: read-out: residual lipase activity, relative to the original initial lipolytic activity; for remaining activity at 0.182 µM: test substance concentration 0.182 μM; for remaining activity at 0.091 µM: test substance concentration 0.091 μM
T1 sequence (P00591 1-450): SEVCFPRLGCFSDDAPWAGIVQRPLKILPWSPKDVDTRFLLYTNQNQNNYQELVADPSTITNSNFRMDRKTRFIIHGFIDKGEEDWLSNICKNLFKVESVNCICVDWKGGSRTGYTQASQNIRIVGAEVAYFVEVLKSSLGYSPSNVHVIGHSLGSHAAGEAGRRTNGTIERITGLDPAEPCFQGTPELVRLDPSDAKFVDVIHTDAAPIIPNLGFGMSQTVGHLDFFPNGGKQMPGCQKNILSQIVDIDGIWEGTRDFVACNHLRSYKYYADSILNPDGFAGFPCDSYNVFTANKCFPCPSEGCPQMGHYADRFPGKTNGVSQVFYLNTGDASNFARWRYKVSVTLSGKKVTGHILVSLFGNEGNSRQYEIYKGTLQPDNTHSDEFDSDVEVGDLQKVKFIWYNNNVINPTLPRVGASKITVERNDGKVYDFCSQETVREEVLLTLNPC
Experimental: In this test the inhibition of the lipolytic action of porcine pancreatic lipase with respect to the test substrate p-nitrophenyl palmitate under the influence of the test substances of Formula I was determined. Therein, the change in the relative extinction of the investigated solutions caused by the lipolytic release of p-nitrophenol from p-nitrophenyl palmitate was measured. The residual activity of the lipase remaining after the addition of the test substances is given in percent, relative to the original initial lipolytic activity. The example numbers quoted relate to the preparation examples given below.
The reagents given below are prepared: • 1. Substrate Solution • For the preparation of a “solution A”, 45 mg p-nitrophenyl palmitate was dissolved in 15 ml isopropanol by sonication with ultrasound. For the preparation of a “solution B” 310 mg Na-deoxycholate dry substance and 150 mg gum arabic were dissolved in 135 ml 0.05 M sodium phosphate buffer (pH=8.0). 5 minutes before the test was performed, 9 ml “solution B” was mixed with 1 ml “solution A” to form a “solution C” and brought to a temperature of 38° C. • 2. Pancreatic Lipase Solution • 100 mg FIP-lipase standard LS7 (porcine pancreatic lipase, 36,700 FIP units/g) were dissolved in 50 ml ice-cold 1%-strength aqueous sodium chloride solution and filtered through a 0.2 μm-syringe filter. After determination of the lipase activity in accordance with FIP, the solution was set to an activity of 40 FIP units/ml with 1%-strength aqueous sodium chloride solution. Dilute pancreatic lipase solutions which had activities of in each case 10, 20 and 30 FIP units/ml were also prepared from the pancreatic lipase solution for a calibration series by diluting with 1%-strength aqueous sodium chloride solution. • 3. Inhibitor Solutions • The lipase-inhibitory compounds of Formula I were dissolved in various concentrations in dimethyl sulfoxide (DMSO), so that between 2.0 and 800 nmol of the inhibitor were present in 100 μl inhibitor solution. Pure DMSO was used to determine the blank reading. Performance of the Test
100 μl of the inhibitor solution of a given concentration prepared as described above was temperature-controlled for 5 minutes in the cell changer of a photometer (Biochrom 4060). Then 1 ml of the above “solution C” was added with stirring. Then the reaction was started by addition of 100 μl pancreatic lipase solution with stirring. 2 minutes after the start of the reaction, the extinction of each sample was detected for 4 minutes at 405 nm.
In each case, in addition to the sample measurement, a calibration series was also measured to determine the lipase activity. […] The calibration series served to determine the lipase activity. To determine the calibration series, the lipase units used were plotted against the extinction values (dE/min) determined in each case. Using these calibration lines and the extinction values determined for the respective incubation batches, the lipase activity can be determined for each sample. […] To determine the blank reading, 100 μl DMSO were mixed with 1 ml “solution C” and the reaction was started by addition of 100 μl of a lipase solution.
The measured value of the photometer per batch (dE/min.) is yielded by the difference in the extinction values after the second and sixth minute (dE) divided by the measuring time (dt=4 min.). The blank reading is determined analogously and then subtracted from the measured value. The residual activity can be read off via the calibration line by means of the dE value calculated in this manner.
In the pancreatic lipase activity test set forth above, the test substances given below each in a concentration (c) of 0.727 μM (unless otherwise stated) caused an inhibition of the lipase activity to the fraction of the original initial activity given below. The compounds of Examples 17, 28, 29, 32, 39, 40, 47, 48, 56, 58 and 59 were measured in a concentration of 0.364 μM each time. […]

[2] = test substance concentration (c) 0.727 μM, substrate p-nitrophenyl palmitate
[3] = substrate p-nitrophenyl palmitate
[4] = range of examples with mixed concentrations: 0.727 μM unless otherwise stated, Ex. 17, 28, 29, 32, 39, 40, 47, 48, 56, 58, 59 at 0.364 μM, 21, 35, 37, 38, 49, 50, 51, 54, 55, 64 at 0.182 μM, 46, 61, 62, 65 at 0.091 μM

Compound | remaining activity at 0.727 µM [1, 2] [%] | melting point [°C] | remaining activity at 0.182 µM [1, 3] [%] | other results
O=C(CCCCCCCCCCOc1ccccc1)C(F)(F)F [Example 5, 1,1,1-trifluoro-12-phenoxy-dodecan-2-one] | ≤ 60 | 47 to 49 |  | 
O=C(CCCCCCCCCc1ccccc1)C(F)(F)F [Example 8, 1,1,1-trifluoro-11-phenyl-undecan-2-one] | ≤ 60 |  |  | 
COc1ccc(CCCC(=O)C(F)(F)F)cc1 [Example 11, 5-(4-methoxyphenyl)-1,1,1-trifluoropentan-2-one] | ≤ 60 |  |  | 
O=C(CCCOc1ccc(OCCCc2ccccc2)cc1)C(F)(F)F [Example 32, 1,1,1-trifluoro-5-[4-(3-phenylpropoxy)phenoxy]pentan-2-one] |  | 32 to 35 |  | 
O=C(CCCC(=O)C(F)(F)F)c1cccc(OCc2ccccc2)c1 [Example 34, 6,6,6-trifluoro-1-(3-benzyloxyphenyl)hexane-1,5-dione] | ≤ 20 |  |  | 
COc1ccc(C(=O)CCCC(=O)C(F)(F)F)cc1CCCCc1ccccc1 [Example 35, 6,6,6-trifluoro-1-[4-methoxy-3-(4-phenylbutyl)phenyl]hexane-1,5-dione] |  |  | ≤ 35 | 
O=C(CCCC(=O)C(F)(F)F)c1ccc(-c2cccc3ccccc23)cc1 [Example 37, 6,6,6-trifluoro-1-[4-(1-naphthyl)phenyl]hexane-1,5-dione] |  |  | ≤ 20 | 
COc1ccc(C(=O)C(CCCCOc2ccccc2)CCC(=O)C(F)(F)F)cc1 (stereo not shown) [Example 38, 6,6,6-trifluoro-1-(4-methoxyphenyl)-2-(4-phenoxybutyl)hexane-1,5-dione] |  |  | ≤ 20 | 
O=C(CCCC(=O)C(F)(F)F)c1ccc(OCCCCOc2ccccc2)cc1 [Example 54, 6,6,6-trifluoro-1-(4-(4-phenoxybutoxy)phenyl)hexane-1,5-dione] |  | 78.8 to 80.4 | ≤ 35 | remaining activity at 0.727 µM [1, 4]: ≤ 60%
O=C(CCCC(=O)C(F)(F)F)c1ccc(OCCCc2ccccc2)cc1 [Example 55, 6,6,6-trifluoro-1-(4-(3-phenylpropoxy)phenyl)hexane-1,5-dione] |  | 52.6 to 54.5 | ≤ 35 | remaining activity at 0.727 µM [1, 4]: ≤ 60%
O=C(CCCC(=O)C(F)(F)F)c1ccc(Br)cc1 [Example 57, 1-(4-bromophenyl)-6,6,6-trifluorohexane-1,5-dione] | ≤ 35 |  |  | 
O=C(CCCC(=O)C(F)(F)F)c1ccc2c(c1)CCCC2 [Example 60, 6,6,6-trifluoro-1-(5,6,7,8-tetrahydronaphthalen-2-yl)hexane-1,5-dione] |  |  |  | remaining activity at 0.727 µM [1, 4]: ≤ 20%
O=C(CCCC(=O)C(F)(F)F)c1ccc(-c2ccc3ccccc3c2)cc1 [Example 62, 6,6,6-trifluoro-1-(4-(2-naphthyl)phenyl)hexane-1,5-dione] |  |  |  | remaining activity at 0.727 µM [1, 4]: ≤ 20%; remaining activity at 0.091 µM [1, 3]: ≤ 60%
CCCCCCCCCCCCCCCCOc1ccc(C(=O)CCCC(=O)C(F)(F)F)cc1 [Example 63, 6,6,6-trifluoro-1-(4-(hexadecyloxy)phenyl)hexane-1,5-dione] |  | 67.7 to 68.9 |  | 
CCCCCCCCCCCCCCOc1ccc(C(=O)CCCC(=O)C(F)(F)F)cc1 [Example 65, 6,6,6-trifluoro-1-(4-(tetradecyloxy)phenyl)hexane-1,5-dione] |  | 63.3 to 65 |  | remaining activity at 0.091 µM [1, 3]: ≤ 20%
